Reference: PMC5321434, “Dihydrobenz[e][1,4]oxazepin-2(3H)-ones, a new anthelmintic chemotype immobilising whipworm and reducing infectivity in vivo” (PLoS Neglected Tropical Diseases, 2017)

System: adult T. muris
Assay: Ex vivo adult T. muris automated motility assay (primary/secondary screen at 100 μM and dose-response)
Design: species or system Trichuris muris
Details: 100 μM; for COMBINED_SCREEN_ACTIVITY: combined primary and secondary screen minus log fold change in movement, adult T. muris; for PRIMARY_SCREEN_MINUS_LOG_FOLD_CHANGE_MOVEMENT: primary screen
Protocol: Severe combined immune deficiency (SCID) mice were bred in the Biological Services Facility at the University of Manchester. Both male and female SCID mice were infected with a high dose of 200 infective embryonated T. muris eggs via oral gavage. At day 35 post-infection, groups of 5 mice were killed and their […] colons removed. Guts were opened longitudinally, washed with pre-warmed Roswell Park Memorial Institute (RPMI) 1640 media supplemented with penicillin (500U/ml) and streptomycin (500μg/ml) and adult T. muris worms gently removed using fine forceps. Worms removed from SCID mice were maintained in RPMI-1640 media supplemented with penicillin (500U/ml) and streptomycin (500μg/ml) at approximately 37°C and studied on the same day. Using fine forceps, individual live worms were placed into 96 well plates containing 75μl of RPMI-1640 medium supplemented with penicillin (500U/ml) and streptomycin (500μg/ml) plus 1% final concentration of DMSO or compound dissolved in DMSO. In the primary screen the test compound concentration was 100μM. Plates were then incubated at 37°C, 5% CO2, and motility was analysed after 24 hours. Worm movement was quantified using an automated motility assay. This system gives an estimate of worm movement in each well by thresholding and quantifying pixel intensity variance over time. An earlier version of this system has been previously described. One adult T. muris worm was used per well, with one well per compound in each replicate of the primary screen. The primary screen was repeated each week for a period of four weeks giving four independent biological replicates from separate parasite batches for each compound. Dose-response curves were calculated with the four factor log-logistic model using the R package drc. The primary screen was carried out at 100μM final concentration. Assay plates were assigned unique IDs and statistical analysis was performed without knowledge of compound identities using R scripts. Once hit wells were identified, well/plate positions were mapped to compound identities using DataWarrior [28]. […] Compounds identified as having encouraging activity from the DMSO solution samples were then resynthesized for confirmatory testing.

Compound	COMBINED_SCREEN_ACTIVITY	PRIMARY_SCREEN_MINUS_LOG_FOLD_CHANGE_MOVEMENT (adult T. muris motility)	SECONDARY_SCREEN_MINUS_LOG_FOLD_CHANGE_MOVEMENT (secondary screen, adult T. muris motility)
CN1C(=O)COCc2cc(Br)ccc21 [Compound 6]	-1.038	-1.038	–
Cc1ccc(CN2C(=O)COCc3ccccc32)cc1 [Compound 7]	-0.007203	-0.007203	–
Cc1ccccc1-c1cccc2c1COCC(=O)N2C [Compound 8]	-0.9498	-0.9498	–
CN1C(=O)COCc2c(-c3cccc(O)c3)cccc21 [Compound 9]	-1.134	-1.134	–
CN1C(=O)COCc2cc(-c3cccc(C#N)c3)ccc21 [Compound 10]	-1.704	-1.704	–
Cc1ccc(-c2cccc3c2COCC(=O)N3C)cc1C [Compound 11]	-0.1315	-0.1315	–
CC(C)N1C(=O)COCc2ccc(-c3ccccc3)cc21 [Compound 12]	1.691	1.691	–
CC(C)N1C(=O)COCc2ccc(-c3cccnc3)cc21 [Compound 13]	-0.8665	-0.8665	–
COc1ccc(CN2C(=O)COCc3ccccc32)cc1 [Compound 14]	-1.77	-1.77	–
CN1C(=O)COCc2c(-c3cccc(CO)c3)cccc21 [Compound 15]	-0.7825	-0.7825	–
CCCN1C(=O)COCc2cc(Br)ccc21 [Compound 16]	-2.129	-2.129	–
CC(C)N1C(=O)COCc2cc(Br)ccc21 [Compound 17]	-0.6442	-0.6442	–
CCCN1C(=O)COCc2ccc(Br)cc21 [Compound 18]	-1.618	-1.618	–
CC(C)N1C(=O)COCc2ccc(Br)cc21 [Compound 19]	-1.507	-1.507	–
CC(C)N1C(=O)COCc2ccc(-c3cnn(C)c3)cc21 [Compound 20]	0.06851	0.06851	–
O=C1COCc2ccccc2N1Cc1ccccc1Cl [Compound 21]	-1.647	-1.647	–
CN1C(=O)COCc2c(-c3ccc(Cl)cc3)cccc21 [Compound 22]	-0.8438	-0.8438	–
O=C1COCc2ccccc2N1Cc1cc(F)cc(F)c1 [Compound 23]	-1.442	-1.442	–
O=C1COCc2ccc(-c3ccccc3)cc2N1CC1CC1 [Compound 24]	7.227	7.227	–
O=C1COCc2ccc(-c3cccnc3)cc2N1CC1CC1 [Compound 25]	-1.503	-1.503	–
O=C1COCc2cc(Br)ccc2N1CC1CC1 [Compound 26]	-0.588	-0.588	–
CN1C(=O)COCc2c(-c3ccc4c(c3)OCO4)cccc21 [Compound 27]	-0.9234	-0.9234	–
COCCN1C(=O)COCc2ccc(-c3ccccc3)cc21 [Compound 28]	-0.7597	-1.727	0.2076
